Results as given in article PMC7215935, “GM1 Oligosaccharide Crosses the Human Blood–Brain Barrier In Vitro by a Paracellular Route” (International Journal of Molecular Sciences, 2020).
Blank lines part the entries; values can stand above or below the molecule they belong to.

What was measured:
[1] = cited from earlier work
hBLECs [2] = test: Toxicity on hBLECs / monolayer integrity by LY permeability in combination with test substance; type: cell-based, human
Experimental: (§1) Prior to the experiments, in order to verify the hBLECs’ monolayer integrity and stability, the permeability parameters were verified as previously reported. Briefly, 1.5 mL Ringer–Hepes solution (RH) (150 mM NaCl, 5.2 mM KCl, 2.2 mM CaCl2, 0.2 mM MgCl26H2O, 6 mM NaHCO3, 5 mM HEPES, pH: 7.4) was added to empty wells of a 12-well plate. Filter insert containing confluent monolayers of hBLECs or not (control) were subsequently placed in the 12-well plate, filled with 0.5 mL RH buffer containing the fluorescent integrity marker LY (50 μM), and then placed on an orbital shaker (150 rpm, Heidolph Titramax 100) at 37 °C in a humidify atmosphere of 95% air/5% CO2. Every 20 min for 1 h, filter inserts were withdrawn from the receiver compartment and placed in the next one. To verify the quantity of LY, at the end of the experiments, aliquots from the donor solution were taken at the end of the experiments and the fluorescence was quantified using a quantification curve of LY as referee. At least three inserts with cells and three without cells were tested in each permeability measurement. The fluorescence was measured using a luminescence spectrometer (LS 50B, Perkin Elmer), using the following excitation/emission wavelength (nm) settings: 432/538. Pe parameters were calculated according to the formulas shown in the Supplementary Information (Equations (7)–(10)). In parallel, as positive control for breakdown of hBLECs, D-mannitol, was used at a concentration of 1.4 M. At this concentration, mannitol induces an osmotic shock, and thus an increase in paracellular permeability.
To evaluate the toxicity of GM1 and OligoGM1, the LY endothelial permeability (Pe) and apparent permeability (Papp) were considered for evaluation of hBLEC monolayer integrity after administration of compounds.
To examine the LY permeability, 1.5 mL of RH buffer was added to empty wells of a 12-well plate, then hBLEC filters were placed in the 12-well plate and filled with 0.5 mL RH buffer containing 50 μΜ LY plus OligoGM1 or GM1 at an appropriate test concentration (from 5 to 300 μΜ). The hBLEC inserts were moved every 20 min to a new RH-filled well up to 60 min. At the end of the incubation period, solutions were collected from apical and basolateral compartments, LY was quantified, and Papp was calculated as reported in the Supplementary Information (Equation (1)) and previously mentioned.

[3] = system: human brain-like endothelial cells (hBLECs); test: Direct transport (apical to basolateral, A → B) across the hBLEC monolayer: Pe and Papp; type: in vitro ADME; conditions: for endothelial permeability Pe (A → B): after 60 min, hBLEC monolayer
Experimental: as §1
Transport experiments were carried out by adding tritium-labeled GM1 or OligoGM1 (1 × 10^6 dpm) to cold GM1 or OligoGM1, respectively, at different concentrations, as specified below.
To identify and quantify the GM1 or OligoGM1 molecules in every transport experiment, aliquots from apical A (5 μL) and basolateral B (200 μL) compartments were collected at indicated time points and combined with 5 mL of ULTIMA GOLD liquid (PerkinElmer), shaken, and counted for 20 min by liquid scintillation analyzer (TRI-CARB 2100TR, Packard). Resulting radioactivity measures were used to estimate the quantity of the molecules. Experiments were performed on an agitation plate at 37 °C (150 rpm, Heidolph Titramax 100) in a humidify atmosphere of 95% air/5% CO2. At least three inserts with cells were tested in each transport experiment for each condition.
To examine flux from apical to basolateral compartments (A → B), 1.5 mL RH buffer was added to empty wells of a 12-well plate. Following this, the hBLEC filter was placed in the same 12-well plate and filled with 0.5 mL RH buffer containing 1 × 10^6 dpm of tritiated [^3H]GM1 or [^3H]OligoGM1 plus 50 μM of cold GM1 or OligoGM1 (Figure S3b).
To establish the time dependence of the transport experiments, hBLEC inserts filled with OligoGM1 were transferred into a new receiver well plate filled with fresh RH buffer every 20 min up to 240 min. The hBLECs’ properties, integrity, and stability were maintained up to 240 min in the transport experiments with RH buffer in the upper and basolateral side (see [28] and Figure S4).
To establish the dose dependence in the transport experiments, 1 × 10^6 dpm of tritiated [^3H]OligoGM1 plus 5, 10, 50, 100, and 300 μM OligoGM1 solutions were prepared and employed as described above. The hBLECs inserts were transferred into a new RH-filled receiver well plate every 20 min up to 60 min. […]
To evaluate the possible active transport involvement, the transport of OligoGM1 from apical to basolateral (A → B) compartments was performed at 4 °C, with the aim of inhibiting the active transport mechanism at low temperature. […]

MRPs = test: ABC transporter competition assay (Caco-2 pump out), CMFDA efflux; conditions: Caco-2 cells, positive control
Experimental: Briefly, Caco-2 cells in 96-well plates were washed once with RH buffer and incubated for 120 min with 10 µM R123 or for 15 min with 0.5 µM CMFDA. R123 and CMFD are substrates for the major efflux pumps expressed by BBB and intestine cells, i.e., P-gp/BCRP and MRPs, respectively. After the incubation period, Caco-2 cells were washed twice with RH buffer with or without test compounds (OligoGM1 at 10, 50, and 100 µM). The rate out (Kout) of Caco-2 cells for fluorescent dyes was monitored by fluorescence measurement (λex = 501 nm and λem = 538 nm for R123; λex = 485 nm and λem = 538 nm for CMFDA) using a microplate fluorescent reader (BioTek, H1, Vermont, Winooski). The amount of dye expelled from the cells was measured at 37 °C and every 5 min for one hour for R123 and every 2 min for 30 min for CMFDA. The rate out of the dye from cells was calculated as the slope of the curve of the cumulative amount of dye against the time (Kout = ∆pmol⁄∆t) and compared with the value in the presence of test compounds.

[4] = system: human brain-like endothelial cells (hBLECs); test: Inverse transport (basolateral to apical, B → A) across hBLECs and efflux ratio; type: in vitro ADME
Experimental: For the inverse transport study (related to basolateral → apical flux, B → A), 1.5 mL of 1 × 10^6 dpm of tritiated [^3H]OligoGM1 plus 50 μM OligoGM1 in RH buffer were added to an empty well of a 12-well plate (Figure S3c). Every 20 min up to 60 min, the hBLEC filter filled with 0.5 mL RH buffer was removed and replaced with a new filter with fresh RH buffer.
The apparent permeability, efflux ratio, and endothelial permeability were calculated to estimate the absorption processes of drugs, to predict implication of active transport in the process of drugs absorption, and to more accurately appreciate the transport of a drug across an endothelial barrier, respectively. Detailed information on the equations used to calculate the permeability parameters are reported in the Supplementary Information. […]
where (∆Q/∆t) (μmol/sec) is the rate of permeation (quantity per second) of a molecule across the cell layer, C0 (μmol/cm3) is the donor compartment concentration at time zero and S (cm2) is the area of […]
In the transwell insert system there are two compartments and, analyzing the absorption of a substance, the apparent permeability index can be obtained for the apical to basolateral transport, Papp A → B, and for the inverse, basolateral to apical transport Papp B → A.
To define Papp (1), the Fick's law could be used, which describes the transport of substances through a semipermeable membrane. Given that the initial concentration of the solute in the donor compartment is much higher than the one in the receiver compartment (equal to 0 at t0), and assuming that the solute equally partitions in the two compartments, for small variation of C0, it is possible to integrate and simplify the Fick’s equation to obtain as follows: […]
where ∆Q/∆t corresponds to the amount of solute that crosses the membrane over time, D is the diffusion coefficient of the substance in water, S is the membrane surface, h its thickness and C0 is the concentration of the solute which approximates the initial concentration C0.
The equation (2) can be rewritten as: […]

hBLECs [5] = test: Metabolic integrity of OligoGM1 after hBLEC transport (HPTLC autoradiography); type: in vitro ADME, human; conditions: basolateral compartment, detection limit 15 dpm
Excerpt: Since OligoGM1 is tritium labeled at position 6 of the external galactose, any possible galactosidase activity present on the plasma membrane of hBLECs can result in external galactose removal, leading to loss of radioactivity from the penta-saccharide. Radiolabeled galactose may pass the BBB or may enter into the cells and be recycled for the biosynthesis of new glycans, so that the radioactivity found may correspond to the galactose or to any possible new glycan rather than to the original oligosaccharide.
Thus, to test the integrity of the OligoGM1 molecule after hBLEC crossing, OligoGM1 solution was prepared in RH buffer at a final concentration of 100 μM plus 1 × 10^6 dpm of tritium-labeled OligoGM1. For the apical–basolateral transport experiment, the hBLEC insert’s apical side was filled with 0.5 mL of the drug solution and placed on 1.5 mL RH buffer-filled well of a 12-well plate. After 60 min, the solution of the receiving compartment (about 1.5 mL) was collected and 200 μL were combined with 5 mL of ULTIMA GOLD liquid (PerkinElmer), shaken, and counted for 20 min by a liquid scintillation analyzer (TRI-CARB 2100TR, Packard).
To verify that the counted radioactivity indeed corresponded to [^3H]OligoGM1, 0.5 mL of receiving compartment solution was lyophilized and suspended in 0.5 mL of methanol. […]

hBLECs [6] = test: Fate of OligoGM1 in hBLECs (cell-associated radioactivity); type: in vitro ADME, human
Experimental: The possible internalization of OligoGM1 in hBLECs was determined by measuring the radioactivity associated to the cells. Briefly, at the end of direct transport, apical and basolateral solutions were collected, hBLEC filters were washed with RH buffer, and cells were detached by trypsin and lysed with 1mM Na3VO4, 1 mM PMSF, 2% (v/v) aprotinin, and 1% (v/v) IP in cold PBS. At this point, the lysed cell solution was counted to measure the radioactivity. All the cell lysates were combined with 5 mL of ULTIMA GOLD liquid (PerkinElmer), shaken, and counted for 20 min by liquid scintillation analyzer (TRI-CARB 2100TR, Packard). The resulting dpm radioactivity measures were used to estimate the molecule quantity.

[7] = 1.4 M, osmotic shock, positive control for leakage

Molecule: 6′-R-maltosyl-maltotrioside
hydrodynamic radius (r) [1]: 8.7 Å

Molecule: OC[C@@H](O)[C@@H](O)[C@H](O)[C@H](O)CO [D-mannitol]
rise of LY Papp on co-incubation (hBLECs [2]; [7]): 4 fold | rise of LY Pe on co-incubation (hBLECs [2]; [7]): 20 fold

endothelial permeability Pe (A → B) ([3]; 50 μM): 0.028 ± 0.007 ×10^−3 cm/min
Molecule: CCCCCCCCCCCCCC=CC(O)C(COC1OC(CO)C(OC2OC(CO)C(OC3OC(CO)C(O)C(OC4OC(CO)C(O)C(O)C4O)C3NC(C)=O)C(OC3(C(=O)O)CC(O)C(NC(C)=O)C(C(O)C(O)CO)O3)C2O)C(O)C1O)NC(=O)CCCCCCCCCCCCCCCCC (stereo not drawn) [GM1, β-Gal-(1-3)-β-GalNAc-(1-4)-[α-Neu5Ac-(2-3)]-β-Gal-(1-4)-β-Glc-(1-1)-Cer, reference compound]
effect on LY Pe and Papp (toxicity to hBLECs) (hBLECs [2]; 10, 50, 100 and 300 μM with 50 μM LY, 60 min and over time (20, 40, 60 min)): no variations of LY Pe and Papp were observed

Molecule: CN(C)C(=O)CCSC(SCCC(=O)O)c1cccc(/C=C/c2ccc3ccc(Cl)cc3n2)c1 (centres unmarked) [MK571, reference compound]
decrease of outgoing rate (Kout) of CMFDA (MRPs): more than 30%

Molecule: OC[C@H]1O[C@H](OC[C@H]2O[C@H](OC[C@H]3O[C@H](O[C@]4(CO)O[C@H](CO)[C@@H](O)[C@@H]4O)[C@H](O)[C@@H](O)[C@@H]3O)[C@H](O)[C@@H](O)[C@H]2O)[C@H](O)[C@@H](O)[C@H]1O [stachyose]
hydrodynamic radius (r) [1]: 6.5 Å

Papp B>A ([4]; 50 μM in basolateral compartment, 60 min (Figure 7)): 1.59 ± 0.27 x 10^-5 cm/sec | Efflux Ratio (E) = Papp B>A / Papp A>B ([4]; 50 μM, 60 min, hBLECs): 1.25 | apparent permeability Papp (A → B) of LY alone ([3]; 50 μM LY, hBLEC integrity check (Figure 2)): 1.25 ± 0.123 ×10^−5 cm/s | Papp A>B at 4 °C ([3]; 50 μM, 60 min, 4 °C (Figure 6d)): 1.04 ± 0.068 x 10^-5 cm/sec | Papp A>B at 37 °C ([3]; 50 μM, 60 min, 37 °C, temperature experiment (Figure 6d)): 1.27 ± 0.072 x 10^-5 cm/sec | endothelial permeability Pe (A → B) ([3]; 50 μM): 0.65 ± 0.041 ×10^−3 cm/min
Molecule: Lucifer yellow [LY, reference compound]
hydrodynamic radius (r) [1]: 4.9 Å

metabolic stability after hBLEC crossing (hBLECs [5]): metabolically stable | amount found within the cells (internalization) (hBLECs [6]; 50 μM apical, 20, 40, 60, 240 min, cell lysate): no detectable amount | radioactivity associated with apical and basolateral solutions (hBLECs [6]; 50 μM apical, each time point 20, 40, 60, 240 min): about 99%
Molecule: [6-^3H]β-Gal-(1-3)-β-GalNAc-(1-4)-[α-Neu5Ac-(2-3)]-β-Gal-(1-4)-β-Glc-Cer [[^3H]OligoGM1]
